# Reference: ChEMBL document CHEMBL5046247, “Hexahydroazulene-2(1H)-one Sesquiterpenoids with Bridged Cyclobutane, Oxetane, and Tetrahydrofuran Rings from the Stems of Daphne papyracea with α-Glycosidase Inhibitory Activity” (J Nat Prod, 2022)
# Assay: Inhibition of Saccharomyces cerevisiae alpha-glucosidase assessed as reduction in PNP formation using alpha-PNPG as substrate incubated for 30 mins by microplate reader assay
row,IC50 [µM],Compound
1,126,O=C(CCCCc1ccccc1)c1ccc(O)cc1
2,139,O=C(CC[C@H](O)C(=O)c1ccc(O)cc1)c1ccccc1
3,102,CC1=C2C[C@H](C(C)C)C[C@@H]3O[C@@]2(CC1=O)[C@@]3(C)O
4,43.3,O=C(/C=C/CCc1ccccc1)c1ccc(O)cc1
5,145,CO[C@@H](CCc1ccccc1)CC(=O)c1ccccc1
6,578,C[C@H]1O[C@H](O[C@H]2[C@H](O)[C@@H](O)[C@@H](O[C@H]3[C@H](O)[C@@H](O)C(O)O[C@@H]3CO)O[C@@H]2CO)[C@H](O)[C@@H](O)[C@@H]1N[C@H]1C=C(CO)[C@@H](O)[C@H](O)[C@H]1O (some centres not stated) [ACARBOSE]
7,159,CC1=C2[C@@H](O)[C@@]3(C)CC(=O)[C@@]4(C)[C@]2(CC1=O)C[C@]43C
